According to patent publication US5998521A, “Aqueous fluoropolymer compositions and method of preparing the same” (3M Innovative Properties Company, priority 1996, dated 1999):

How the values were obtained:
[1] = Surface tension and critical micelle concentration of aqueous surfactant solutions; type: physicochemical; settings: deionized water; for Surf. Tens.: at the CMC
Procedure: Critical Micelle Concentration (CMC): The critical micelle concentration is defined as the concentration at which further surface tension is no longer lowered with increasing levels of surfactant. To determine CMC, surface tension is measured as a function of surfactant concentration using a K-12 Processor Tensiometer in conjunction with a 665 Dosimat automatic surfactant injection device (also commercially available from Kruss GmbH). Surface tension is then plotted vs. log concentration and the data points are connected. The resulting curve has a nearly horizontal flat portion at concentrations above the CMC and has a negative steep slope at concentrations below the CMC. The CMC is defined as the lowest surfactant concentration in the horizontal flat portion of the curve.
(§1) Then the critical micelle concentration (CMC) was determined for each surfactant.
as §1

[2] = Thermogravimetric analysis of neat perfluorocarboxylate salts; type: physicochemical; settings: neat salt, nitrogen, 10° C./min
Text: Thermal degradation measurements were made on a series of neat perfluorocarboxylate salts, including several α-branched open chain structures (Examples N2-N9), a primarily linear open chain structure (Example N10-Fluorad™ FC-143 Fluorochemical Surfactant, commercially available from 3M Company, St. Paul, Minn.), and a closed chain (i.e., cyclic) structure (Example N11--made by the electrochemical fluorination of benzoic acid and hydrolysis in the presence of KOH, as described in U.S. Pat. No. 2,567,011 (Diesslin et al.)).
The perfluorocarboxylate salts were tested using a Perkin-Elmer TGA 7 thermogravimetric analysis apparatus and a salt sample size of approximately 5 mg, a heating rate of 10° C./min, and a nitrogen gas flow rate of 40-45 mL/min. Using the TGA 7 software, the following temperatures were recorded: (1) the onset temperature of decomposition, (2) the temperature at which 50% of the sample weight was lost, and (3) the temperature at which 90% of the sample weight was lost.

Row | Molecule | Surf. Tens. ([1]; Table 3) [dynes/cm] | CMC ([1]; Table 3) [ppm] | further results
1 | C[N+](C)([O-])CCCNC(=O)C(F)(C(F)(F)F)C(F)(F)C(F)(F)C(F)(F)C(F)(F)C(F)(F)C(F)(F)C(F)(F)F (stereo not shown) [Example E1, C7 F15 CF(CF3)CONH(CH2)3 N^+ (CH3)2 O^-] | 16.3 | 20 | –
2 | C[N+](C)([O-])CCCNC(=O)C(F)(C(F)(F)F)C(F)(F)C(F)(F)C(F)(F)C(F)(F)C(F)(F)F (stereo not shown) [Example E2, C5 F11 CF(CF3)CONH(CH2)3 N^+ (CH3)2 O^-] | 17.5 | 500 | –
3 | C[N+](C)([O-])CCCNC(=O)C(F)(C(F)(F)F)C(F)(F)C(F)(F)C(F)(F)C(F)(F)C(F)(F)C(F)(F)F (stereo not shown) [Example E3, C6 F13 CF(CF3)CONH(CH2)3 N^+ (CH3)2 O^-] | 16.6 | 100 | –
4 | C[N+](C)([O-])CCCNC(=O)C(F)(C(F)(F)F)C(F)(F)C(F)(F)C(F)(F)C(F)(F)C(F)(F)C(F)(F)C(F)(F)C(F)(F)F (stereo not shown) [Example E4, C8 F17 CF(CF3)CONH(CH2)3 N^+ (CH3)2 O^-] | 16.5 | 20 | –
5 | C[N+](C)([O-])CCCNC(=O)C(F)(C(F)(F)F)C(F)(F)C(F)(F)C(F)(F)C(F)(F)C(F)(F)C(F)(F)C(F)(F)C(F)(F)C(F)(F)C(F)(F)F (stereo not shown) [Example E5, C10 F21 CF(CF3)CONH(CH2)3 N^+ (CH3)2 O^-] | 17.1 | 500 | –
6 | C[N+](C)([O-])CCCN(CCO)C(=O)C(F)(C(F)(F)F)C(F)(F)C(F)(F)C(F)(F)C(F)(F)C(F)(F)C(F)(F)C(F)(F)F (stereo not shown) [Example E8, C7 F15 CF(CF3)CON(C2 H4 OH)(CH2)3 N^+ (CH3)2 O^-] | 16.6 | 125 | –
7 | O=C(NCCOC(=O)C(F)(C(F)(F)F)C(F)(F)C(F)(F)C(F)(F)C(F)(F)C(F)(F)C(F)(F)C(F)(F)F)c1cc[n+]([O-])cc1 (stereo not shown) [Example E10] | 14.5 | 400 | –
8 | O=C(NCCOC(=O)C(F)(C(F)(F)F)C(F)(F)C(F)(F)C(F)(F)C(F)(F)C(F)(F)C(F)(F)F)c1cc[n+]([O-])cc1 (stereo not shown) [Example E11] | 15.5 | 1000 | –
9 | O=C(OCCc1cccc[n+]1[O-])C(F)(C(F)(F)F)C(F)(F)C(F)(F)C(F)(F)C(F)(F)C(F)(F)C(F)(F)F (stereo not shown) [Example E12] | 18.3 | 8000 | –
10 | O=C(OCCc1cccc[n+]1[O-])C(F)(C(F)(F)F)C(F)(F)C(F)(F)C(F)(F)C(F)(F)C(F)(F)C(F)(F)C(F)(F)F (stereo not shown) [Example E13] | 15.0 | 6000 | –
11 | C[n+]1ccc(C(=O)NCCOC(=O)C(F)(C(F)(F)F)C(F)(F)C(F)(F)C(F)(F)C(F)(F)C(F)(F)C(F)(F)C(F)(F)F)cc1 (stereo not shown) [Example F1] | 15.0 | 500 | –
12 | C[n+]1ccc(C(=O)NCCOC(=O)C(F)(C(F)(F)F)C(F)(F)C(F)(F)C(F)(F)C(F)(F)C(F)(F)C(F)(F)F)cc1 (stereo not shown) [Example F2] | 15.5 | 30 | –
13 | C[N+](C)(CCO)CCCNC(=O)C(F)(C(F)(F)F)C(F)(F)C(F)(F)C(F)(F)C(F)(F)C(F)(F)F (stereo not shown) [Example F3] | 17.0 | 1000 | –
14 | C[N+](C)(CCO)CCCNC(=O)C(F)(C(F)(F)F)C(F)(F)C(F)(F)C(F)(F)C(F)(F)C(F)(F)C(F)(F)C(F)(F)F (stereo not shown) [Example F4] | 19.0 | 300 | –
15 | O=C(NCCC[N+]1(CCO)CCOCC1)C(F)(C(F)(F)F)C(F)(F)C(F)(F)C(F)(F)C(F)(F)C(F)(F)C(F)(F)C(F)(F)F (stereo not shown) [Example F5] | 20.8 | – | –
16 | CN(C)CCCN(CCCN(C)C)C(=O)C(F)(C(F)(F)F)C(F)(F)C(F)(F)C(F)(F)C(F)(F)C(F)(F)C(F)(F)C(F)(F)F (stereo not shown) [Example F9, C7 F15 CF(CF3)CON[C3 H6 N^+ (CH3)2 H]2 2[-OOCCH3]] | 22.0 | 1000 | –
17 | C[N+](C)(CCCNC(=O)C(F)(C(F)(F)F)C(F)(F)C(F)(F)C(F)(F)C(F)(F)C(F)(F)C(F)(F)C(F)(F)F)CCC(=O)[O-] (stereo not shown) [Example K1, C7 F15 CF(CF3)CONH(CH2)3 N^+ (CH3)2C2 H4 COO^-] | 16.6 | 125 | –

Row | Molecule | Surf. Tens. ([1]; Table 3) [dynes/cm] | CMC ([1]; Table 3) [ppm] | further results
18 | O=C([O-])CC[N+]1(CCCNC(=O)C(F)(C(F)(F)F)C(F)(F)C(F)(F)C(F)(F)C(F)(F)C(F)(F)C(F)(F)C(F)(F)F)CCOCC1 (stereo not shown) [Example K3] | 19.2 | – | –
19 | C[N+](C)(CCCN(CCC[N+](C)(C)CCC(=O)[O-])C(=O)C(F)(C(F)(F)F)C(F)(F)C(F)(F)C(F)(F)C(F)(F)C(F)(F)C(F)(F)C(F)(F)F)CCC(=O)[O-] (stereo not shown) [Example K4] | 23.6 | 100 | –
20 | O=C(O)C(F)(C(F)(F)F)C(F)(F)C(F)(F)C(F)(F)C(F)(F)C(F)(F)F (stereo not shown) [Example M15, C5 F11 CF(CF3)COO^- H4 N^+] | – | – | Surf. Tens. ([1]; Table 5): 22.1 dynes/cm; CMC ([1]; Table 5): > 10000 ppm; Temperature for: 50% loss ([2]; listed as N2): 178 °C; Temperature for: 90% loss ([2]; listed as N2): 188 °C; Temperature for: Onset ([2]; listed as N2): 166 °C
21 | O=C(O)C(F)(C(F)(F)C(F)(F)F)C(F)(F)C(F)(F)C(F)(F)C(F)(F)C(F)(F)C(F)(F)F (stereo not shown) [Example M19, C6 F13 CF(C2 F5)COO^- H4 N^+] | – | – | Temperature for: 50% loss [2]: 171 °C; Temperature for: 90% loss [2]: 188 °C; Temperature for: Onset [2]: 153 °C
22 | O=C(O)C(F)(C(F)(F)F)C(F)(F)C(F)(F)C(F)(F)C(F)(F)C(F)(F)C(F)(F)C(F)(F)F (stereo not shown) [Example M20, C7 F15 CF(CF3)COO^- H3 N^+ C2 H4 OH] | – | – | Surf. Tens. ([1]; Table 5): 15.0 dynes/cm; CMC ([1]; Table 5): 500 ppm
23 | O=C(O)C(F)(C(F)(F)F)C(F)(F)C(F)(F)C(F)(F)C(F)(F)C(F)(F)C(F)(F)F (stereo not shown) [Example M22, C6 F13 CF(CF3)COO^- K^+] | – | – | Surf. Tens. ([1]; Table 5): 17.5 dynes/cm; CMC ([1]; Table 5): 10000 ppm
24 | O=C(O)C(F)(C(F)(F)F)C(F)(F)C(F)(F)C(F)(F)C(F)(F)C(F)(F)C(F)(F)C(F)(F)F (stereo not shown) [Example M23, C7 F15 CF(CF3)COO^- K^+] | – | – | Surf. Tens. ([1]; Table 5): 15.0 dynes/cm; CMC ([1]; Table 5): 2500 ppm
25 | O=C(O)C(F)(C(F)(F)F)C(F)(F)C(F)(F)C(F)(F)C(F)(F)C(F)(F)C(F)(F)C(F)(F)C(F)(F)F (stereo not shown) [Example M24, C8 F17 CF(CF3)COO^- K^+] | – | – | Surf. Tens. ([1]; Table 5): 16.4 dynes/cm; CMC ([1]; Table 5): 3000 ppm
26 | O=C(O)C(F)(C(F)(F)F)C(F)(F)C(F)(F)C(F)(F)C(F)(F)C(F)(F)C(F)(F)F (stereo not shown) [Example M25, C6 F13 CF(CF3)COO^- Na^+] | – | – | Surf. Tens. ([1]; Table 5): 19.8 dynes/cm; CMC ([1]; Table 5): 10000 ppm
27 | O=C(O)C(F)(C(F)(F)F)C(F)(F)C(F)(F)C(F)(F)C(F)(F)C(F)(F)C(F)(F)C(F)(F)F (stereo not shown) [Example M26, C7 F15 CF(CF3)COO^- Na^+] | – | – | Surf. Tens. ([1]; Table 5): 19.4 dynes/cm; CMC ([1]; Table 5): 3000 ppm
28 | O=C(O)C(F)(C(F)(F)F)C(F)(F)C(F)(F)C(F)(F)C(F)(F)C(F)(F)C(F)(F)C(F)(F)F (stereo not shown) [Example M27, C7 F15 CF(CF3)COO^- Li^+] | – | – | Surf. Tens. ([1]; Table 5): 24.1 dynes/cm; CMC ([1]; Table 5): 3500 ppm
29 | O=C(O)C(F)(C(F)(F)F)C(F)(F)C(F)(F)C(F)(F)C(F)(F)C(F)(F)F (stereo not shown) [Example M28, C5 F11 CF(CF3)COO^- Na^+] | – | – | Temperature for: 50% loss ([2]; listed as N8): 250 °C; Temperature for: 90% loss ([2]; listed as N8): 263 °C; Temperature for: Onset ([2]; listed as N8): 236 °C
30 | O=C(O)C(F)(C(F)(F)F)C(F)(F)C(F)(F)C(F)(F)C(F)(F)C(F)(F)C(F)(F)C(F)(F)F (stereo not shown) [Example M30, C7 F15 CF(CF3)COO^- 1/2[H3 N^+ C2 H4 NHC2 H4 N^+ H3]] | – | – | Surf. Tens. ([1]; Table 5): 16.2 dynes/cm; CMC ([1]; Table 5): 3000 ppm
31 | O=C(O)C1(F)C(F)(F)C(F)(F)C(F)(F)C(F)(F)C1(F)F [U.S. Pat. No. 2,567,011, reference compound] | – | – | Temperature for: 50% loss [2]: 110 °C; Temperature for: 90% loss [2]: 120 °C; Temperature for: Onset [2]: 100 °C
32 | C6 F13 CF(CF3)CON(C3 H6 SO3^-)(CH2)3 N^+ (CH3)2 H [Example K2] | 20.3 | 500 | –
33 | C8 F17 CF(CF3)CO(OCH2 CH2)16 OCH3 [Example J1] | 22 | 150 | –
